Earlier results, collected in patent US20200241005A1, “COMPOSITIONS AND METHODS FOR THE DIAGNOSIS AND TREATMENT OF DISEASES OF THE LIVER” (Viscient Biosciences, Inc., priority 2019, published 2020).

Columns and labels:
SLC1A1 [1] = details: SLC1A1 vs SLC1A2 and SLC1A3
SLC1A1 [2] = details: astroglial cells; unknown mechanism

Compound	preference for SLC1A1 over its most related homologs SLC1A2 and SLC1A3 (SLC1A1 [1])	effect on SLC1A1 expression (SLC1A1 [2])
N[C@H](C(=O)O)[C@H](Cc1ccccc1)C(=O)O [L-beta-benzyl-aspartate]	10 fold	–
Nc1nc2ccc(OC(F)(F)F)cc2s1 [Riluzole]	–	enhances SLC1A1 expression
